Test results from patent publication US7671069B2, “Tricyclic, heteroaromatic compounds modulating CXCR4 and/ or CXCR7” (ChemoCentryx, Inc., priority 2006, dated 2010).

Legend:
[1] = target: T1, CCXCKR2 (CXCR7) (Homo sapiens, UniProt P25106); test: Displacement of 125I SDF-1 from CCXCKR2 (CXCR7) on MCF-7 and/or MDA-MB-435S cells; assay type: binding; conditions: second activity CXCR4/CXCR7
T1 construct: expressed in transfected cells; host or cells: MDA-MB-435S transfected with pcDNA3.1(+)-hRDC1 (G418 selected) and/or MCF-7 (endogenous receptor)
T1 sequence (P25106 whole entry): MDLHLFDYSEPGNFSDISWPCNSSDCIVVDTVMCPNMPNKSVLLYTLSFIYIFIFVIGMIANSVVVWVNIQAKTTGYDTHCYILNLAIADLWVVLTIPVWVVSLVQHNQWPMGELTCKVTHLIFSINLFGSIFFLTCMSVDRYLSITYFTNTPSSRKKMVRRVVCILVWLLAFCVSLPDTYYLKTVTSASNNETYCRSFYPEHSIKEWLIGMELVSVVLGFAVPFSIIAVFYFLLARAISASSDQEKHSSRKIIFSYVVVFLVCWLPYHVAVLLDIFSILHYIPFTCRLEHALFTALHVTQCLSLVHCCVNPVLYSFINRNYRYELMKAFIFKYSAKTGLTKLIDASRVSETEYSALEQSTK
Protocol: The ability of the compounds to displace the labeled chemokine from the CCXCKR2 receptor sites at multiple concentrations was then determined with the screening process.
Reagents and Cells. […] SDF-1 was purchased from Perkin-Elmer Life Sciences, Inc. (Boston, Mass.). The MCF-7 (adenocarcinoma; mammary gland) cell line was obtained from the American Type Culture Collection (Manassas, Va.) or and was cultured in DMEM (Mediatech, Herudon, Va.) supplemented with 10% fetal bovine serum (FBS) (HyClone Logan, Utah) and bovine insulin (0.01 mg/mL) (Sigma, St. Louis, Mo.) at 37° C. in a humidified incubator at a 5% CO2/air mixture. CCXCKR2 transfected MDA-MB-435S were produced as described below. MDA-MB-435S human breast cancer line, was purchased from ATCC, and cultured in DMEM/10% FBS medium. The complete coding sequence of the gene encoding CCXCKR2 (a.k.a.CXCR7, hRDC1), was isolated from MCF-7 cells using μMACs mRNA isolation kit (Miltenyi Biotec, Auburn, Calif.). DNA contamination was removed by DNase digestion via RNeasy columns (Qiagen, Inc., Valencia, Calif.) and cDNA was generated using GeneAmp RNA PCR Core Kit (Applied Biosystems, Foster City, Clif.). PCR of cDNA samples was performed using Taq PCR Master Mix kit (Qiagen, Inc.) and hRDC1 primers harboring 5′ and 3′ Not I sites (hRDC1F 5′ […]-3′ (SEO ID NO:11), hRDC1R 5′-[…]-3′ (SEO ID NO: 12)) Not I digested PCR product was ligated into Not I digested pcDNA3.1 (+)(Invitrogen, Carlsbad, Calif.) and screened for orientation and sequence confirmed. Plasmid DNA was then isolated from overnight bacterial cultures by Maxiprep (Qiagen, Inc.). Plasmid DNA (10μg) was added to MDA-MB-435s cells and cells were electroporated (0.22 kV, 960uF) via Gene Pulser (Biorad laboratories, Hercules, Calif.). 48 hr post-electroporation, cells were transferred to selection medium (1000 ug/ml G418).
Binding Analysis. Target compounds were tested to determine their ability to bind with CCXCKR2 sites on MCF-7 and/or MDA-MB-435S cells. Efficiency-maximized radioligand binding using filtration protocols as described in Dairaghi D J, et al., HHV8-encoded vMIP-I selectively engages chemokine receptor CCR5. Agonist and antagonist profiles of viral chemokines, J. Biol. Chem. Jul. 30, 1999; 274(31): 21569-74 and Gosling J, et al., Cutting edge: identification of a novel chemokine receptor that binds dendritic cell-i and T cell-active chemokines including ELC, SLC, and TECK., J. Immunol. Mar. 15, 2000; 164(6):2851-6 was used.
In these assays, MCF-7 and/or MDA-MB-435S cells were interrogated with the target compounds and the ability of these compounds to displace ^125I radiolabeled SDF-1 was assessed using the protocol described in Dairaghi and Gosling. The target compounds were added to the plate to the indicated concentration and were then incubated with cells followed by the addition of radiolabeled chemokine (^125I SDF-1) for 3 hr at 4° C. in the following binding medium (25 mM HEPES, 140 mM NaCl, 1 mM CaCl2, 5 mM MgCl2 and 0.2% bovine serum albumin, adjusted to pH 7.1). All assays were then incubated for 3 hrs at 4° C. with gentle agitation. Following incubation in all binding assays, reactions were aspirated onto PEI-treated GF/B glass filters (Packard) using a cell harvester (Packard) and washed twice (25 mM HEPES, 500 mM NaCl, 1 mM CaCl2, 5 mM MgCl2, adjusted to pH 7.1). Scintillant (MicroScint 10, Packard) was added to the wells, and the filters were counted in a Packard Topcount scintillation counter. Data were analyzed and plotted using Prism (GraphPad Prism version 3.0a for Macintosh, GraphPad Software, www.graphpad.com).

[2] = target: T2, CXCR4 (Homo sapiens, UniProt P61073); test: Inhibition of SDF-1 ligand binding or chemotaxis assay for CXCR4; conditions: first (or only) activity listed in CXCR4/CXCR7; chemotaxis assay or binding assays
T2 construct: endogenous in cells; host or cells: CEM-Nkr, CCRF-CEM (ATCC #CCL-119), Jurkat (ATCC #TIB-152), Molt-4 (ATCC# CRL-1582); IL-2 stimulated lymphocytes from human blood
T2 sequence (P61073 whole entry): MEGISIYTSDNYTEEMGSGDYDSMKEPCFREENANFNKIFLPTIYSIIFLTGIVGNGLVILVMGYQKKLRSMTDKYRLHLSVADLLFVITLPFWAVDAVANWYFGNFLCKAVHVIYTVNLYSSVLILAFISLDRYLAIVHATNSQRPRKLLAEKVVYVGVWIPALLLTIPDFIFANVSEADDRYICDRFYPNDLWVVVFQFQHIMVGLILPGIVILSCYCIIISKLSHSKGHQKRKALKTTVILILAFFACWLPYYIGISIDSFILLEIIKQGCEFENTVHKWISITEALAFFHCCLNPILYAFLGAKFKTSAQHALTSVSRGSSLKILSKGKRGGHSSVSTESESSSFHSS
Protocol: CEM-Nkr, CCRF-CEM (ATCC #CCL-119), Jurkat (ATCC #TIB-152), Molt-4 (ATCC# CRL-1 582), cell lines, all endogenously expressing CXCR4, were used in compound screening and subsequent assays. These cell lines were cultured as a suspension in RPMI-1640 medium supplemented with 2 mM L-glutamine, 1.5 g/L sodium bicarbonate, 4.5 g/L glucose, 10 mM HEPES, 1 mM sodium pyruvate, and 10% FBS. Cells were grown under 5% CO2/95% air, 100% humidity at 37° C. and subcultured twice weekly at 1:6 (cells were cultured at a density range of 1×10^5 to 2×10^6 cells/mL) and harvested at 1×10^6 cells/mL.
Il-2 stimulated lymphocytes were isolated from fresh human blood using density separation and centrifigation. Briefly, whole blood is incubated with equal parts 3% dextran and allowed to separate for 45 minutes. After separation, the top layer is then layered on top of 15 mls of Ficoll (15 mls of Ficoll for every 30 mls of blood suspension) and centrifuged for 30 minutes at 400×g with no brake. The pellet at the bottom of the tube is then isolated and resuspended into PharmLyse RBC Lysis Buffer (BD Biosciences, San Jose, Calif.) after which the sample is again centrifuged for 10 minutes at 400×g with brake. The remaining cell pellet is resuspended as appropriate and stimulated with PHA for 2 days, followed by culturing in the presence of human IL-2 cytokine.
Cells were centrifuged and resuspended in assay buffer (20 mM HEPES pH 7.1, 140 mM NaCl, 1 mM CaCl2, 5 mM MgCl2, and with 0.2% bovine serum albumin) to a concentration of 4×10^6 cells/mL for cell lines. Binding assays were set up as follows. 0.15 mL of cells (6×10^5 cells/well) was added to the assay plates containing the compounds, giving a final concentration of ˜2-10 μM each compound for screening (or part of a dose response for compound IC50 determinations). Then 0.1 mL of ^125I labeled SDF-1α (obtained from Perkin Elmer Life Sciences, Boston, Mass.) diluted in assay buffer to a final concentration of ˜[…], yielding ˜30,000 cpm per well, was added, the plates sealed and incubated for approximately 3 hours at 4° C. on a shaker platform. Reactions were aspirated onto GF/B glass filters pre-soaked in 0.3% polyethyleneimine (PEI) solution, on a vacuum cell harvester (Packard Instruments; Meriden, Conn.). Scintillation fluid (40 μl; Microscint 20, Packard Instruments) was added to each well, the plates were sealed and radioactivity measured in a Topcount scintillation counter (Packard Instruments). Control wells containing either diluent only (for total counts) or excess SDF1a (1 μg/mL, for non-specific binding) were used to calculate the percent of total inhibition for compound. The computer program Prism from Graph Pad, Inc. (San Diego, Calif.) was used to calculate IC50 values. IC50 values are those concentrations required to reduce the binding of radiolabeled SDF-1α to the receptor by 50%. (For further descriptions of ligand binding and other functional assays, see Dairaghi, et al., J. Biol. Chem. 274:21569-21574 (1999), Penfold, et al., Proc. Natl. Acad. Sci. USA. 96:9839-9844 (1999), and Dairaghi, et al,. J. Biol. Chem. 272:28206-28209 (1997)).
Chemotaxis assays were performed using 5 μm pore polycarbonate, polyvinylpyrrolidone-coated filters in 96-well chemotaxis chambers (Neuroprobe; Gaithersburg, Md.) using chemotaxis buffer (Hank's balanced salt solution (HBSS) and 1% FBS). CXCR4 ligand (i.e., SDF1a, R&D Systems; Minneapolis, Minn.) are use to evaluate compound mediated inhibition of CXCR4 mediated migration. Other chemokines (i.e., TECK; R&D Systems; Minneapolis, Minn.) are used as specificity controls. The lower chamber was loaded with 29 μl of chemokine (i.e., 0.1 nM SDF1a); the top chamber contained 50,000 Jurkat cells or IL-2 lymphocytes in 20 μl. […]

SMILES | IC50 [1] [nM] | IC50 [2] [nM]
COc1ccc2oc(=O)c3cnn(CC(=O)NCCN(C)C4CCCCC4)c3c2c1 [Compound 24] | < 1000 | < 1000
COc1ccc2c(c1)c1c(cnn1CC(=O)NCCN(C)C1CCCCC1)c(=O)n2C [Compound 30] | < 1000 | 1000 to 10000
COc1ccc2c(c1)c1c(cnn1CC(=O)NCCNC1CCCCC1)c(=O)n2C [Compound 31] | < 1000 | > 10000
COc1ccc2c(c1)c1c(cnn1CC(=O)NCCN(C)C1CCCCCCC1)c(=O)n2C [Compound 32] | < 1000 | 1000 to 10000
